In patent publication US20210199658A1, “DETECTION OF LIPASE ACTIVITY IN HONEY BEES” (The United States of America, as Represented by the …, priority 2019, published 2021):

Columns and labels:
honey bees [1] = test: Total lipid content of imidacloprid-challenged bees, vanillin assay; type: in vivo, Apis mellifera
Description: The total lipid content on bees challenged with either 5 ppb or 50 ppb imidacloprid was measured using the vanillin assay, performed as in Example 4. The measured lipid levels (in mg/mL) were plotted, and the results are shown on FIG. 10. The total lipid content for bees treated with 5 ppb imidacloprid (P<0.01) or 50 ppb imidacloprid (P<0.05) was approximately 3-fold lower than the total lipid content measured in control bees.
To determine if the lipase activity measured in healthy and DWV-infected hives correlated with the measured lipid levels, the vanillin assay (Foray, V., et al., 2012, “A handbook for uncovering the complete energetic budget in insects: the van Handel's method (1985) revisited,” Physiol. Entomol. 37: 295-302) was used to measure the lipid levels in the bees. Briefly, vanillin reagent was prepared by mixing vanillin (V1104; Sigma-Aldrich, St. Louis, Mo., USA) with 68% ortho-phosphoric acid, reaching a final concentration of 1.2 g/L. For the assay, 100 μL of homogenized pupae in PBS was transferred into a borosilicate microplate well and heated at 90° C. until complete solvent evaporation. Ten microliters of 98% sulphuric acid was then added to each well, and the microplate was incubated at 90° C. for 2 minutes in a water bath. […] The plate was homogenized, incubated at room temperature for 15 minutes and its absorbance was measured spectrophotometrically at 525 nm.

honey bees [2] = test: Time course of lipase activity (RFU) in honey bees challenged with imidacloprid; type: in vivo, Apis mellifera
Description: Healthy honey bees were challenged in a cup-cage environment with either 5 ppb or 50 ppb of the neonicotinoid imidacloprid. The lipase activity levels were measured during a 50 minute time course, as taught herein.
To determine if it is possible to detect a difference between healthy bees and DWV-infected bees using the EnzChek lipase substrate and the buffers taught herein, a time course assay was performed using a set amount of EnzChek lipase substrate and a fixed amount of extracted pupae. […] In this figure, the relative fluorescence intensity (RFU) measured was plotted against time. Using linear regression, a significant difference in slopes was observable between individuals from DWV-infected hives, and individuals from healthy hives. The slope obtained for DWV-infected individuals was about 13.8 higher than the slope obtained for healthy individuals.
Healthy seven and fourteen-day-old emerging adult honey bees were obtained from field colonies and were challenged with either 5 ppb or 50 ppb of the neonicotinoid imidacloprid. Same-aged bees were collected from unchallenged colonies acted as controls. The lipase activity levels were measured during a 30-minute time course, as in Example 3. […] Statistical significance was determined using pair-wise Kaplan Meier linear regression (P<0.01).

O=[N+]([O-])NC1=NCCN1Cc1ccc(Cl)nc1 [imidacloprid, 1-(6-chloro-3-pyridylmethyl)-N-nitroimidazolidin-2-ylideneamine]
total lipid content, fold lower than control bees (honey bees [1]; bees treated with 5 ppb imidacloprid, P<0.01): approximately 3 fold
total lipid content, fold lower than control bees (honey bees [1]; bees treated with 50 ppb imidacloprid, P<0.05): approximately 3 fold
lipase activity levels (slope of RFU against time) compared with control bees (honey bees [2]; bees challenged with 5 ppb imidacloprid): similar
lipase activity levels (RFU against time) compared with control bees (honey bees [2]; bees challenged with 50 ppb imidacloprid, linear regression P<0.01): significantly higher
